System: patients with advanced solid tumors
Assay: Safety: treatment-emergent and senaparib-related adverse events graded per NCI CTCAE v4.03
Type: in vivo
Method: This phase I, open-label, multicenter, dose-escalation, and dose-expansion study was conducted at three national clinical institutions in China. […] At baseline, all patients enrolled in the dose-escalation phase had to have at least one evaluable lesion, and those in the dose-expansion period had to have at least one measurable lesion, according to Response Evaluation Criteria in Solid Tumors version 1.1 (RECIST v1.1).[16] Entry to the dose-expansion cohort required the presence of a BRCA mutation, with the exception of patients with ovarian carcinoma, fallopian tube carcinoma, and primary peritoneal carcinoma. Full study eligibility criteria are provided in Supplementary Table S1.
Dose escalation was conducted using a modified Fibonacci 3 + 3 method (Supplementary Fig. S1).[17] Patients were administered oral senaparib from a planned starting dose of 2 mg once daily (QD), with preliminary dose escalation to 120 mg via nine dose groups, in order of their entry into the study. At a given dose level, each patient received a single dose of senaparib followed by a 7-day washout period. They then entered a continuous dosing period to confirm the safety and PK profile, in which they received senaparib QD from day 1 to day 21 of each 3-week cycle. Progression to the next higher dose required approval from the Data Safety Monitoring Committee (DSMC) upon review of the safety and PK data of the previous dose. A 50-mg twice-daily (BID) dosing group was added (planned enrollment, n = 6 patients) based on a DSMC review of the safety, PK, and efficacy analysis of the completed QD dose groups in the phase I clinical trial of senaparib dose escalation in Australia (NCT03507543), which commenced prior to the start of this trial.
The dose-expansion period included 3 populations: dose groups in which at least one patient achieved complete response (CR) or partial response (PR) per RECIST v1.1[16] and 1 dose group higher (evaluated for safety), as well as the dose group at the maximum tolerated dose (MTD)/recommended phase II dose (RP2D). Each of these groups included those patients in the respective dose-escalation group plus a planned additional 10 patients (approximately 20 patients in the MTD/RP2D group) with BRCA^mut+ solid tumors (ovarian, breast, or prostate cancer were preferred, and ovarian cancer could be BRCA wild type). Patients received senaparib monotherapy orally QD or BID (50-mg dose only) over each 3-week cycle until disease progression or unacceptable toxicity.
DLTs were predefined toxicities (Supplementary Table S2) recorded over the 7 days following the single-dose administration of senaparib and during the first treatment cycle (day 1-day 21) for each dose group in the dose-escalation period only. The MTD was defined as the maximum dose at which ≤1/6 patients experienced a DLT. Senaparib PK parameters were derived from blood samples collected from patients after the single administration, and at regular intervals during the first cycle of the dose-escalation and dose-expansion periods. Plasma concentrations of senaparib were determined using high-performance liquid chromatography-tandem mass spectrometry. Tumor response was assessed every 6 weeks per RECIST v1.1,[16] recording objective response rate (ORR), disease control rate (DCR), duration of response (DOR), and progression-free survival (PFS) by dose level for all patients and for those harboring BRCA^mut+ tumors.

O=C(c1cc(Cn2c(=O)[nH]c(=O)c3c(F)cccc32)ccc1F)N1CCN(c2ncccn2)CC1 [Senaparib]
TRAEs Grade ≥3, events (40 mg QD n = 3): 0 n ev
TRAEs Grade ≥3, patients (40 mg QD n = 3): 0 n (%)
TRAEs, events (40 mg QD n = 3): 6 n ev
TRAEs, patients (40 mg QD n = 3): 3 (100) n (%)
Vomiting TRAE, All (40 mg QD n = 3): 0 n (%)
Vomiting TRAE, Gr≥3 (40 mg QD n = 3): 0 n (%)
WBC decreased TRAE, All (40 mg QD n = 3): 0 n (%)
WBC decreased TRAE, Gr≥3 (40 mg QD n = 3): 0 n (%)
ALT increased TRAE, All (50 mg BID n = 4): 1 (25.0) n (%)
ALT increased TRAE, Gr≥3 (50 mg BID n = 4): 0 n (%)
AST increased TRAE, All (50 mg BID n = 4): 1 (25.0) n (%)
AST increased TRAE, Gr≥3 (50 mg BID n = 4): 0 n (%)
Anemia TRAE, All (50 mg BID n = 4): 3 (75.0) n (%)
Anemia TRAE, Gr≥3 (50 mg BID n = 4): 2 (50.0) n (%)
Any TEAE, All (50 mg BID n = 4): 4 (100) n (%)
Any TEAE, Gr≥3 (50 mg BID n = 4): 3 (75.0) n (%)
Any TEAE, events (50 mg BID n = 4): 32 n ev
Any TEAE, patients (50 mg BID n = 4): 4 (100) n (%)
Any TRAE, All (50 mg BID n = 4): 4 (100) n (%)
Any TRAE, Gr≥3 (50 mg BID n = 4): 2 (50.0) n (%)
Appetite decreased TRAE, All (50 mg BID n = 4): 0 n (%)
Appetite decreased TRAE, Gr≥3 (50 mg BID n = 4): 0 n (%)
Asthenia TRAE, All (50 mg BID n = 4): 1 (25.0) n (%)
Asthenia TRAE, Gr≥3 (50 mg BID n = 4): 0 n (%)
Blood bilirubin increased TRAE, All (50 mg BID n = 4): 0 n (%)
Blood bilirubin increased TRAE, Gr≥3 (50 mg BID n = 4): 0 n (%)
Blood creatinine increased TRAE, All (50 mg BID n = 4): 0 n (%)
Blood creatinine increased TRAE, Gr≥3 (50 mg BID n = 4): 0 n (%)
Hypokalemia TRAE, All (50 mg BID n = 4): 0 n (%)
Hypokalemia TRAE, Gr≥3 (50 mg BID n = 4): 0 n (%)
Nausea TRAE, All (50 mg BID n = 4): 2 (50.0) n (%)
Nausea TRAE, Gr≥3 (50 mg BID n = 4): 0 n (%)
Neutrophil count decreased TRAE, All (50 mg BID n = 4): 0 n (%)
Neutrophil count decreased TRAE, Gr≥3 (50 mg BID n = 4): 0 n (%)
Platelet count decreased TRAE, All (50 mg BID n = 4): 1 (25.0) n (%)
Platelet count decreased TRAE, Gr≥3 (50 mg BID n = 4): 0 n (%)
SAEs, events (50 mg BID n = 4): 1 n ev
SAEs, patients (50 mg BID n = 4): 1 (25.0) n (%)
TEAE Grade ≥3, events (50 mg BID n = 4): 3 n ev
TEAE Grade ≥3, patients (50 mg BID n = 4): 3 (75.0) n (%)
TEAEs leading to death, events (50 mg BID n = 4): 0 n ev
TEAEs leading to death, patients (50 mg BID n = 4): 0 n (%)
TEAEs leading to dose discontinuation, events (50 mg BID n = 4): 0 n ev
TEAEs leading to dose discontinuation, patients (50 mg BID n = 4): 0 n (%)
TEAEs leading to dose interruption, events (50 mg BID n = 4): 1 n ev
TEAEs leading to dose interruption, patients (50 mg BID n = 4): 1 (25.0) n (%)
TEAEs leading to dose reduction, events (50 mg BID n = 4): 1 n ev
TEAEs leading to dose reduction, patients (50 mg BID n = 4): 1 (25.0) n (%)
TRAEs Grade ≥3, events (50 mg BID n = 4): 2 n ev
TRAEs Grade ≥3, patients (50 mg BID n = 4): 2 (50.0) n (%)
TRAEs, events (50 mg BID n = 4): 26 n ev
TRAEs, patients (50 mg BID n = 4): 4 (100) n (%)
Vomiting TRAE, All (50 mg BID n = 4): 2 (50.0) n (%)
Vomiting TRAE, Gr≥3 (50 mg BID n = 4): 0 n (%)
WBC decreased TRAE, All (50 mg BID n = 4): 2 (50.0) n (%)
WBC decreased TRAE, Gr≥3 (50 mg BID n = 4): 0 n (%)
ALT increased TRAE, All (60 mg QD n = 5): 0 n (%)
ALT increased TRAE, Gr≥3 (60 mg QD n = 5): 0 n (%)
AST increased TRAE, All (60 mg QD n = 5): 0 n (%)
AST increased TRAE, Gr≥3 (60 mg QD n = 5): 0 n (%)
Anemia TRAE, All (60 mg QD n = 5): 0 n (%)
Anemia TRAE, Gr≥3 (60 mg QD n = 5): 0 n (%)
Any TEAE, All (60 mg QD n = 5): 5 (100) n (%)
Any TEAE, Gr≥3 (60 mg QD n = 5): 2 (40.0) n (%)
Any TEAE, events (60 mg QD n = 5): 33 n ev
Any TEAE, patients (60 mg QD n = 5): 5 (100) n (%)
Any TRAE, All (60 mg QD n = 5): 5 (100) n (%)
Any TRAE, Gr≥3 (60 mg QD n = 5): 0 n (%)
Appetite decreased TRAE, All (60 mg QD n = 5): 1 (20.0) n (%)
Appetite decreased TRAE, Gr≥3 (60 mg QD n = 5): 0 n (%)
Asthenia TRAE, All (60 mg QD n = 5): 1 (20.0) n (%)
Asthenia TRAE, Gr≥3 (60 mg QD n = 5): 0 n (%)
Blood bilirubin increased TRAE, All (60 mg QD n = 5): 0 n (%)
Blood bilirubin increased TRAE, Gr≥3 (60 mg QD n = 5): 0 n (%)
Blood creatinine increased TRAE, All (60 mg QD n = 5): 1 (20.0) n (%)
Blood creatinine increased TRAE, Gr≥3 (60 mg QD n = 5): 0 n (%)
Hypokalemia TRAE, All (60 mg QD n = 5): 1 (20.0) n (%)
Hypokalemia TRAE, Gr≥3 (60 mg QD n = 5): 0 n (%)
Nausea TRAE, All (60 mg QD n = 5): 1 (20.0) n (%)
Nausea TRAE, Gr≥3 (60 mg QD n = 5): 0 n (%)
Neutrophil count decreased TRAE, All (60 mg QD n = 5): 1 (20.0) n (%)
Neutrophil count decreased TRAE, Gr≥3 (60 mg QD n = 5): 0 n (%)
Platelet count decreased TRAE, All (60 mg QD n = 5): 2 (40.0) n (%)
Platelet count decreased TRAE, Gr≥3 (60 mg QD n = 5): 0 n (%)
SAEs, events (60 mg QD n = 5): 2 n ev
SAEs, patients (60 mg QD n = 5): 2 (40.0) n (%)
TEAE Grade ≥3, events (60 mg QD n = 5): 2 n ev
TEAE Grade ≥3, patients (60 mg QD n = 5): 2 (40.0) n (%)
TEAEs leading to death, events (60 mg QD n = 5): 0 n ev
TEAEs leading to death, patients (60 mg QD n = 5): 0 n (%)
TEAEs leading to dose discontinuation, events (60 mg QD n = 5): 1 n ev
TEAEs leading to dose discontinuation, patients (60 mg QD n = 5): 1 (20.0) n (%)
TEAEs leading to dose interruption, events (60 mg QD n = 5): 1 n ev
TEAEs leading to dose interruption, patients (60 mg QD n = 5): 1 (20.0) n (%)
TEAEs leading to dose reduction, events (60 mg QD n = 5): 0 n ev
TEAEs leading to dose reduction, patients (60 mg QD n = 5): 0 n (%)
TRAEs Grade ≥3, events (60 mg QD n = 5): 0 n ev
TRAEs Grade ≥3, patients (60 mg QD n = 5): 0 n (%)
TRAEs, events (60 mg QD n = 5): 27 n ev
TRAEs, patients (60 mg QD n = 5): 5 (100) n (%)
Vomiting TRAE, All (60 mg QD n = 5): 0 n (%)
Vomiting TRAE, Gr≥3 (60 mg QD n = 5): 0 n (%)
WBC decreased TRAE, All (60 mg QD n = 5): 2 (40.0) n (%)
WBC decreased TRAE, Gr≥3 (60 mg QD n = 5): 0 n (%)
ALT increased TRAE, All (80 mg QD n = 9): 1 (11.1) n (%)
ALT increased TRAE, Gr≥3 (80 mg QD n = 9): 0 n (%)
AST increased TRAE, All (80 mg QD n = 9): 2 (22.2) n (%)
AST increased TRAE, Gr≥3 (80 mg QD n = 9): 0 n (%)
Anemia TRAE, All (80 mg QD n = 9): 7 (77.8) n (%)
Anemia TRAE, Gr≥3 (80 mg QD n = 9): 3 (33.3) n (%)
Any TEAE, All (80 mg QD n = 9): 9 (100) n (%)
Any TEAE, Gr≥3 (80 mg QD n = 9): 6 (66.7) n (%)
Any TEAE, events (80 mg QD n = 9): 132 n ev
Any TEAE, patients (80 mg QD n = 9): 9 (100) n (%)
Any TRAE, All (80 mg QD n = 9): 9 (100) n (%)
Any TRAE, Gr≥3 (80 mg QD n = 9): 5 (55.6) n (%)

From PMC10712727, “Safety, Tolerability, and Pharmacokinetics of Senaparib, a Novel PARP1/2 Inhibitor, in Chinese Patients With Advanced Solid Tumors: A Phase I Trial” (The Oncologist, 2023)
